Like-named read-outs stand apart in the source and are kept apart here.
How the values were obtained:
[1] = tested on: IL-31; settings: NASH patients; cited from earlier work
[2] = target: T1, PPARy (Homo sapiens, UniProt P37231); settings: read-out: ECso for PPARy; cited from earlier work
T1 sequence (P37231 1-505): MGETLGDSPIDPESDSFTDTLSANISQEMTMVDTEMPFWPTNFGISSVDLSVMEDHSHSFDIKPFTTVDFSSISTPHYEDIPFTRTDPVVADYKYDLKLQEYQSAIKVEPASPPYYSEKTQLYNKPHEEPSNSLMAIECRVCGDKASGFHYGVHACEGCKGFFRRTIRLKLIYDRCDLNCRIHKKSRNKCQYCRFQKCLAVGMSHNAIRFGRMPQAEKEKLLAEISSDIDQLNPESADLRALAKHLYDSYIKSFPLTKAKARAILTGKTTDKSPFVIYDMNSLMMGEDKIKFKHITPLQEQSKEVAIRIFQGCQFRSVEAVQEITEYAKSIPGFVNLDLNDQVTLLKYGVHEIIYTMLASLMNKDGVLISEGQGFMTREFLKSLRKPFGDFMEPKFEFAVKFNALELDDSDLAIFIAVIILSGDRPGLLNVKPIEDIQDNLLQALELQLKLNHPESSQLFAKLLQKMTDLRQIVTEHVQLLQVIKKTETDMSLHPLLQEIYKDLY

[3] = Example 7: topical mavodelpar in uremic pruritus; format: in vivo, human; settings: topical ointment 1, 2, 5 or 10%; end-stage renal disease on hemodialysis
Method: Adult subjects with end-stage renal disease on routine hemodialysis are treated topically with an ointment containing 1, 2, 5, or 10% of mavodelpar. Subjects are permitted their usual other medications. The subjects are assessed before the study, and at intervals during the study, such as every 4 weeks during the study and 4 weeks after the last dose of the mavodelpar therapy, for safety and pharmacodynamic evaluations. At each visit, the subjects are assessed for their disease symptoms and biomarkers, and assessed for pruritus. The subjects also maintain health diaries, which are reviewed at each visit.

[4] = target: T2, PPARa (Homo sapiens, UniProt Q07869); settings: read-out: ECso for PPARa; cited from earlier work
T2 sequence (Q07869 1-468): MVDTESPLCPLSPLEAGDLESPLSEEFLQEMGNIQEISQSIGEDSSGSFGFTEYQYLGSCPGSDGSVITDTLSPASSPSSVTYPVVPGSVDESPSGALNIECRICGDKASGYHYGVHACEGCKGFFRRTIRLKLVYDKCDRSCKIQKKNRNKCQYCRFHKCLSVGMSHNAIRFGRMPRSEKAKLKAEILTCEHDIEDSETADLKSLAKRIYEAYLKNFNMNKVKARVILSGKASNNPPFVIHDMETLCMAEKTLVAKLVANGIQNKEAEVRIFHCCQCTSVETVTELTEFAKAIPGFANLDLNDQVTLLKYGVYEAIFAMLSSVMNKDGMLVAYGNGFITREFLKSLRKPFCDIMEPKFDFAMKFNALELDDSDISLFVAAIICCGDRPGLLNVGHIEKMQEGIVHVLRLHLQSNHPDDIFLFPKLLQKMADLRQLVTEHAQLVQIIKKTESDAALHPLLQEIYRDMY

[5] = Example 6: oral mavodelpar in uremic pruritus; format: in vivo, human; settings: oral 5, 10, 25, 50 and 100 mg/day; end-stage renal disease on hemodialysis
Method: Adult subjects with end-stage renal disease on routine hemodialysis are treated orally with doses of 5, 10, 25, 50, and 100 mg/day of mavodelpar. Subjects are permitted their usual other medications. The subjects are assessed before the study, and at intervals during the study, such as every 4 weeks during the study and 4 weeks after the last dose of the mavodelpar therapy, for safety and pharmacodynamic evaluations. At each visit, the subjects are assessed for their disease symptoms and biomarkers, and assessed for uremic pruritus. The subjects also maintain health diaries, which are reviewed at each visit.

[6] = 12-month trial, PBC patients, cited from earlier work
[7] = tested on: IL-31; settings: humanized liver murine model; cited from earlier work
[8] = tested on: human IL-31; assay: Serum human IL-31 in PXB mice (humanized liver) after 19 days of dosing; format: in vivo, PXB mouse; settings: gavage once/day for 19 days, 2 h after last dose; day 0 0.13 pg/mL
Excerpt: The PXB mouse (PhoenixBio Co., Ltd., Higashi-Hiroshima, Japan) is a chimeric mouse with a humanized liver, produced by transplanting human hepatocytes into the albumin enhancer/promoter-urokinase-type plasminogen activator complementary DNA transgenic/SCID mouse. The mouse has its liver repopulated by human hepatocytes at a ratio of more than 70%, typically 85-90%, as assessed by measuring the ratio of human albumin to mouse albumin in the blood. The transplanted human hepatocytes express a variety of human messenger RNA (mRNA) and proteins, in a similar manner to those of the normal human liver. […] The study was conducted at PhoenixBio. Male PXB mice aged about 25 weeks, kept in single animal cages and fed CRF1 mouse chow supplemented with AS primate chow for vitamin C supplementation (both from Oriental Yeast Co., Ltd., Tokyo, Japan), were randomized into groups (10/group) based on mean values for body weight and blood human albumin concentration. […] Two hours after the last dose, each mouse was anesthetized with isoflurane, at least 400 μL blood was collected by cardiac puncture, and the mouse sacrificed by exsanguination. The blood samples were left to coagulate at room temperature for at least 5 minutes, then centrifuged at 13200×g for 3 minutes at 4 °C to obtain serum, which was analyzed for human IL-31.

[9] = Studies of oral seladelpar in PBC; format: in vivo, human
[10] = tested on: IL-31 production by CD4 T cells; assay: IL-31 production by CD4 T cells under Th2-promoting conditions; format: cell-based, human; settings: for IL-31 concentration in culture medium, mean: 10 μM seladelpar
Method: CD4 T cells were enriched from peripheral blood mononuclear cells collected from two normal healthy donors, using the EasySep™ Human CD4+ T Cell Isolation Kit ([…] Technologies). 100,000 CD4 T cells were seeded in a U-bottom 96-well-plate well, and cultured in Th2-promoting conditions promoted by IL-4 or IL-33. […] On day 5 of culture, the anti-CD3/CD28 beads were diluted by adding 150 μL TCM. From days 5 to 13, the cells were cultured in the presence of the same reagents as for days 1 to 4 plus 50 ng/ml IL-2; and the cell culture medium was renewed every 2-3 days by a change of 50% volume of the medium. On day 13 or day 14, the expanded T cells in an individual well were split to four to six wells of 96-well-plate wells; and 5 ng/mL phorbol myristate acetate and 500 ng/mL ionomycin were added for 3 days to re-activate the T cells. The IL-31 concentration in the culture medium of each well was determined using the V-PLEX Human IL-31 Kit (Meso Scale Diagnostics, LLC; Rockville, MD, USA).

[11] = tested on: IL-31; assay: ENHANCE phase 3 study in PBC (NCT03602560): serum IL-31; format: in vivo, human; settings: 12 weeks, p<0.001
Excerpt: The trial subjects in this phase 3 study were adult, male or female, with a diagnosis of PBC. Exclusion criteria included AST or ALT≥3×ULN, total bilirubin (TBIL)≥2×ULN, autoimmune hepatitis or a history of chronic viral hepatitis, PSC, the current use of fibrates or simvastatin, the use of colchicine, methotrexate, azathioprine, or systemic steroids in the previous two months, the use of an experimental treatment for PBC, and the use of an experimental or unapproved immunosuppressant. […] Serum IL-31 and its correlation with patient-reported pruritus numerical rating scale (NRS, 0-10) were assessed. Baseline IL-31 levels positively correlated with pruritus NRS; r=0.54, p<0.0001). […] IL-31 compared to subjects with pruritus NRS<4 (7.6 pg/mL [1.2, 14.5] vs 1.2 pg/mL [0.3, 2.8], p<0.0001). At baseline, IL-31 was also correlated with serum total bile acids (r=0.54, p<0.0001) and alkaline phosphatase (ALP) (r=0.44, p<0.0001).

[12] = target: T3, peroxisome proliferator-activated receptor-α (Homo sapiens, UniProt Q07869); assay: Specificity of seladelpar for PPARδ compared with PPARα; format: biochemical; settings: PPARδ vs PPARα
T3 sequence (Q07869 1-468): T2 sequence (Q07869 1-468)
Excerpt: It is specific (>600-fold and >2500-fold compared with peroxisome proliferator-activated receptor-α and peroxisome proliferator-activated receptor-γ receptors). PPARδ activation stimulates fatty acid oxidation and utilization, improves plasma lipid and lipoprotein metabolism, glucose utilization, and mitochondrial respiration, and preserves stem cell homeostasis.

[13] = Example 4: oral seladelpar in uremic pruritus; format: in vivo, human; settings: oral 5, 10, 25 and 50 mg/day; end-stage renal disease on hemodialysis
Method: Subjects are permitted their usual other medications. […] At each visit, the subjects are assessed for their disease symptoms and biomarkers, and assessed for uremic pruritus. The subjects also maintain health diaries, which are reviewed at each visit.

[14] = Example 5: topical seladelpar in uremic pruritus; format: in vivo, human; settings: topical ointment 1, 2, 5 or 10%; end-stage renal disease on hemodialysis
Method: Subjects are permitted their usual other medications. […] At each visit, the subjects are assessed for their disease symptoms and biomarkers, and assessed for pruritus. The subjects also maintain health diaries, which are reviewed at each visit.

SMILES: O=C(O)c1ccnc(N2CC(O)(c3ccc(OCc4c(-c5c(Cl)cccc5Cl)noc4C4CC4)cc3Cl)C2)c1 [cilofexor]
- effect on IL-31 [1]: increased IL-31

SMILES: Cc1cc(OC/C=C(/c2ccc(F)cc2)c2ccc(C#CCN3CCOCC3)cc2)ccc1OCC(=O)O [mavodelpar, (4-{[(2E)-3-(4-fluorophenyl)-3-{4-[3-(morpholin-4-yl)prop-1-yn-1-yl]phenyl}prop-2-en-1-yl]oxy}-2-methylphenoxy)acetic acid]
- EC50 [2]: > 10 µM
- uremic pruritus [3]: improvement in their uremic pruritus
- EC50 [4]: > 10 µM
- uremic pruritus [5]: improvement in their uremic pruritus

SMILES: CC[C@H]1[C@@H](O)[C@@H]2[C@H](CC[C@]3(C)[C@@H]([C@H](C)CCC(=O)O)CC[C@@H]23)[C@@]2(C)CC[C@@H](O)C[C@@H]12 [obeticholic acid]
- patients with severe pruritus ([6]; OCALIVA 10 mg arm): 23%
- patients with severe pruritus ([6]; OCALIVA titration arm): 19%
- mRNA expression in human hepatocytes [7]: increased
- serum IL-31 concentration [8]: 3.7 pg/mL

SMILES: CCO[C@H](COc1ccc(C(F)(F)F)cc1)CSc1ccc(OCC(=O)O)c(C)c1 [seladelpar, [4-({(2R)-2-ethoxy-3-[4-(trifluoromethyl)phenoxy]propyl}sulfanyl)-2-methylphenoxy]acetic acid]
- efficacy in PBC ([9]; oral doses of 5, 10, 50 and 200 mg/day): effective in the treatment of PBC
- effect on cholestatic pruritus (exacerbation) ([9]; oral doses of 5, 10, 50 and 200 mg/day in PBC): not to exacerbate cholestatic pruritus
- efficacy in cholestatic pruritus associated with PBC ([9]; oral doses of 5 and 10 mg/day): effective in the treatment of cholestatic pruritus
- effect on IL-31 ([9]; studies in PBC): reduce IL-31
- IL-31 concentration in culture medium, mean ([10]; Donor 1, IL-4 promoted): 36.00 pg/mL
- IL-31 concentration in culture medium, mean ([10]; Donor 1, IL-33 promoted): 10.14 pg/mL
- IL-31 concentration in culture medium, mean ([10]; Donor 2, IL-4 promoted): 27.28 pg/mL
- IL-31 concentration in culture medium, mean ([10]; Donor 2, IL-33 promoted): 324.05 pg/mL
- effect on IL-31 production by CD4 T cells ([10]; both donors, both promoters, p<0.0001 vs DMSO, Mann-Whitney): reduced IL-31 production
- mean IL-31 level at end of study ([11]; 5 mg/day oral, from 3.8 pg/mL at baseline): 1.7 pg/mL
- mean IL-31 level at end of study ([11]; 10 mg/day oral, from 4.2 pg/mL at baseline): 1.7 pg/mL
- specificity compared with peroxisome proliferator-activated receptor-α [12]: > 600 fold
- uremic pruritus [13]: improvement in their uremic pruritus
- uremic pruritus [14]: improvement in their uremic pruritus
- serum IL-31 concentration [8]: 0.19 pg/mL

Source: patent US20240252499A1, “Treatment of uremic pruritus” (CymaBay Therapeutics, Inc., priority 2023, published 2024)
